21 compounds from patent publication US8288385B2, “6-(3-aza-bicyclo[3.1.0]hex-3-yl)-2-phenyl-pyrimidines” (Actelion Pharmaceuticals Ltd., priority 2009, dated 2012) can be followed below.

The target in the assay is T1, human P2Y12 receptor (Homo sapiens, UniProt Q9H244).
T1 construct: expressed in transfected cells; host or cells: Chinese Hamster Ovary (CHO) cells
T1 sequence (Q9H244 whole entry): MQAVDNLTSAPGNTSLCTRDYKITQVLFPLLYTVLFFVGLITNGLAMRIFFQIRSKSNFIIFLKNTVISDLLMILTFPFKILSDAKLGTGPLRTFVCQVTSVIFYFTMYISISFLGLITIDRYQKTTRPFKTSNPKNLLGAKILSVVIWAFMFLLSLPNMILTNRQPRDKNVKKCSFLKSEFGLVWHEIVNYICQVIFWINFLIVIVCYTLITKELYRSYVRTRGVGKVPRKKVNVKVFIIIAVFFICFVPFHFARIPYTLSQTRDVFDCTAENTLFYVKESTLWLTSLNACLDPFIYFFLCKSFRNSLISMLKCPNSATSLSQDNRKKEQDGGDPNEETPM
Nature of the assay: P2Y12 receptor binding assay. To be noted: CHO cells with recombinant expression of the human P2Y12 receptor; tritium-labeled 2-methyl-S-ADP; RT, 2 hours. How it is done:
P2Y12 Receptor Binding Assay
Chinese Hamster Ovary (CHO) cells with recombinant expression of the human P2Y12 receptor were cultured in 24 well cell-culture plates. Cells were washed three times with binding buffer (50 mM Tris pH 7.4, 100 mM NaCl, 1 mM EDTA, 0.5% BSA). The cells were then incubated with 0.5 ml per well binding buffer containing tritium-labeled 2-methyl-thio-adenosine 5′-diphosphate (2-methyl-S-ADP) (between 100,000 and 300,000 dpm per well) and various concentrations of test compounds. After incubation at RT for 2 hours, cells were washed three times with binding buffer. Then, cells were solubilized by addition of 0.5 ml solubilization buffer (SDS, NaOH, EDTA). The content of each well was then transferred into beta-counter vials and 2.0 ml of Ultima Gold Scintillation liquid was added.
In general, IC50 refers to the concentration at which inhibition is half-maximal. As to `CCCCOC(=O)N1CCN(C(=O)[C@@H](NC(=O)c2cc(N3C[C@@H]4[C@@H](CC(=O)O)[C@@H]4C3)nc(-c3ccccc3)n2)C(C)C)CC1` [Example 24, 4-((S)-2-{[6-((1α,5α,6α)-6-Carboxymethyl-3-aza-bicyclo[3.1.0]hex-3-yl)-2-phenyl-pyrimidine-4-carbonyl]-amino}-3-methyl-butyryl)-piperazine-1-carboxylic acid butyl ester], the 50% inhibitory concentration (IC50) is 13 nM. For `CCCCOC(=O)N1CCN(C(=O)[C@H](CCC)NC(=O)c2cc(N3C[C@@H]4[C@H](C3)[C@@H]4C(=O)O)nc(-c3ccccc3)n2)CC1` [Example 37, (1α,5α,6β)-3-{6-[(S)-1-(4-Butoxycarbonyl-piperazine-1-carbonyl)-butylcarbamoyl]-2-phenyl-pyrimidin-4-yl}-3-aza-bicyclo[3.1.0]hexane-6-carboxylic acid], the IC50 was determined as 123 nM. Next, `CCCCOC(=O)N1CCN(C(=O)[C@H](Cc2ccccc2)NC(=O)c2cc(N3C[C@@H]4[C@H](C3)[C@@H]4C(=O)O)nc(-c3ccccc3)n2)CC1` [Example 45, (1α,5α,6β)-3-{6-[(S)-1-Benzyl-2-(4-butoxycarbonyl-piperazin-1-yl)-2-oxo-ethylcarbamoyl]-2-phenyl-pyrimidin-4-yl}-3-aza-bicyclo[3.1.0]hexane-6-carboxylic acid]: 255 nM; `CCCCOC(=O)N1CCN(C(=O)[C@H](CCC(=O)O)NC(=O)c2cc(N3C[C@@H]4[C@H](C3)[C@H]4C(=O)O)nc(-c3ccccc3)n2)CC1` [Example 1, (1α,5α,6α)-3-{6-[(S)-1-(4-Butoxycarbonyl-piperazine-1-carbonyl)-3-carboxy-propylcarbamoyl]-2-phenyl-pyrimidin-4-yl}-3-aza-bicyclo[3.1.0]hexane-6-carboxylic acid]: 10 nM; `CCCCOC(=O)N1CCN(C(=O)[C@@H](NC(=O)c2cc(N3C[C@@H]4[C@H](C3)[C@@H]4C(=O)O)nc(-c3ccccc3F)n2)C(C)C)CC1` [Example 47, (1α,5α,6β)-3-[6-[(S)-1-(4-Butoxycarbonyl-piperazine-1-carbonyl)-2-methyl-propylcarbamoyl]-2-(2-fluoro-phenyl)-pyrimidin-4-yl]-3-aza-bicyclo[3.1.0]hexane-6-carboxylic acid]: 12 nM.

Regarding `CCCCOC(=O)N1CCN(C(=O)[C@H](CP(=O)(O)O)NC(=O)c2cc(N3C[C@@H]4[C@H](C3)[C@H]4C(=O)OCC)nc(-c3ccccc3)n2)CC1` [Example 51, (1α,5α,6α)-3-{6-[(R)-2-(4-Butoxycarbonyl-piperazin-1-yl)-2-oxo-1-phosphonomethyl-ethylcarbamoyl]-2-phenyl-pyrimidin-4-yl}-3-aza-bicyclo[3.1.0]hexane-6-carboxylic acid ethyl ester], the 50% inhibitory concentration (IC50) is 2.5 nM. The value for `CCCCOC(=O)N1CCN(C(=O)[C@@H](NC(=O)c2cc(N3C[C@@H]4[C@H](C3)[C@@H]4c3nnn[nH]3)nc(-c3ccccc3)n2)C(C)C)CC1` [Example 22] was 38 nM; that for `CCCCOC(=O)N1CCN(C(=O)[C@@H](NC(=O)c2cc(N3C[C@@H]4[C@H](C3)[C@H]4C(=O)O)nc(-c3ccccc3)n2)C(C)(C)C)CC1` [Example 44, (1α,5α,6α)-3-{6-[(S)-1-(4-Butoxycarbonyl-piperazine-1-carbonyl)-2,2-dimethyl-propylcarbamoyl]-2-phenyl-pyrimidin-4-yl}-3-aza-bicyclo[3.1.0]hexane-6-carboxylic acid] was 903 nM. The value for `CCCCOC(=O)N1CCN(C(=O)[C@@H](NC(=O)c2cc(N3C[C@@H]4[C@H](CC(=O)O)[C@@H]4C3)nc(-c3ccccc3)n2)C(C)C)CC1` [Example 25, 4-((S)-2-{[6-((1α,5α,6β)-6-Carboxymethyl-3-aza-bicyclo[3.1.0]hex-3-yl)-2-phenyl-pyrimidine-4-carbonyl]-amino}-3-methyl-butyryl)-piperazine-1-carboxylic acid butyl ester] was 13 nM; that for `CCCCCOC(=O)N1CCN(C(=O)[C@@H](NC(=O)c2cc(N3C[C@@H]4[C@H](C3)[C@@H]4C(=O)O)nc(-c3ccccc3)n2)C(C)C)CC1` [Example 15, (1α,5α,6β)-3-{6-[(S)-2-Methyl-1-(4-pentyloxycarbonyl-piperazine-1-carbonyl)-propylcarbamoyl]-2-phenyl-pyrimidin-4-yl}-3-aza-bicyclo[3.1.0]hexane-6-carboxylic acid] was 15 nM; that for `CCCCOC(=O)N1CCN(C(=O)[C@H](CCC(=O)O)NC(=O)c2cc(N3C[C@@H]4[C@@H](CO)[C@@H]4C3)nc(-c3ccccc3)n2)CC1` [Example 9, 4-((S)-4-Carboxy-2-{[6-((1α,5α,6α)-6-hydroxymethyl-3-aza-bicyclo[3.1.0]hex-3-yl)-2-phenyl-pyrimidine-4-carbonyl]-amino}-butyryl)-piperazine-1-carboxylic acid butyl ester] was 8 nM. Next, `CCCCOC(=O)N1CCN(C(=O)[C@H](C)NC(=O)c2cc(N3C[C@@H]4[C@H](C3)[C@@H]4C(=O)O)nc(-c3ccccc3)n2)CC1` [Example 35, (1α,5α,6β)-3-{6-[(S)-2-(4-Butoxycarbonyl-piperazin-1-yl)-1-methyl-2-oxo-ethylcarbamoyl]-2-phenyl-pyrimidin-4-yl}-3-aza-bicyclo[3.1.0]hexane-6-carboxylic acid]: 51 nM.

As for `CCCCOC(=O)N1CCN(C(=O)[C@@H](NC(=O)c2cc(N3C[C@@H]4[C@H](C#N)[C@@H]4C3)nc(-c3ccccc3)n2)C(C)C)CC1` [Example 21, 4-((S)-2-{[6-((1α,5α,6β)-6-Cyano-3-aza-bicyclo[3.1.0]hex-3-yl)-2-phenyl-pyrimidine-4-carbonyl]-amino}-3-methyl-butyryl)-piperazine-1-carboxylic acid butyl ester], the IC50 is 10 nM. On to `CCCCOC(=O)N1CCN(C(=O)C(NC(=O)c2cc(N3CC4C(C3)C4C(=O)O)nc(-c3ccccc3)n2)C(C)C)CC1C` [Example 31, (1α,5α,6β)-3-{6-[(S)-1-((R)-4-Butoxycarbonyl-3-methyl-piperazine-1-carbonyl)-2-methyl-propylcarbamoyl]-2-phenyl-pyrimidin-4-yl}-3-aza-bicyclo[3.1.0]hexane-6-carboxylic acid], for which the IC50 came to 53 nM. The value for `CCCCOC(=O)N1CCN(C(=O)[C@@H](NC(=O)c2cc(N3C[C@@H]4[C@H](C3)[C@@H]4C(=O)O)nc(-c3cccc(C(F)(F)F)c3)n2)C(C)C)CC1` [Example 30, (1α,5α,6β)-3-[6-[(S)-1-(4-Butoxycarbonyl-piperazine-1-carbonyl)-2-methyl-propylcarbamoyl]-2-(3-trifluoromethyl-phenyl)-pyrimidin-4-yl]-3-aza-bicyclo[3.1.0]hexane-6-carboxylic acid] was 250 nM; that for `CCCCOC(=O)N1CCN(C(=O)[C@H](CCC(=O)O)NC(=O)c2cc(N3C[C@@H]4[C@H](C3)[C@@H]4C(=O)O)nc(-c3ccccc3)n2)CC1` [Example 2, (1α,5α,6β)-3-{6-[(S)-1-(4-Butoxycarbonyl-piperazine-1-carbonyl)-3-carboxy-propylcarbamoyl]-2-phenyl-pyrimidin-4-yl}-3-aza-bicyclo[3.1.0]hexane-6-carboxylic acid] was 3.7 nM; that for `CCCCOC(=O)N1CCN(C(=O)[C@@H](NC(=O)c2cc(N3C[C@@H]4[C@H](C3)[C@@H]4C(=O)O)nc(-c3ccccc3)n2)C(C)(C)C)CC1` [Example 43, (1α,5α,6β)-3-{6-[(S)-1-(4-Butoxycarbonyl-piperazine-1-carbonyl)-2,2-dimethyl-propylcarbamoyl]-2-phenyl-pyrimidin-4-yl}-3-aza-bicyclo[3.1.0]hexane-6-carboxylic acid] was 330 nM. With `CCCCOC(=O)N1CCN(C(=O)[C@H](CCC(=O)O)NC(=O)c2cc(N3C[C@@H]4[C@@H](COC)[C@@H]4C3)nc(-c3ccccc3)n2)CC1` [Example 10, 4-((S)-4-Carboxy-2-{[6-((1α,5α,6α)-6-methoxymethyl-3-aza-bicyclo[3.1.0]hex-3-yl)-2-phenyl-pyrimidine-4-carbonyl]-amino}-butyryl)-piperazine-1-carboxylic acid butyl ester], the 50% inhibitory concentration (IC50) came to 6.6 nM. Regarding `CCCCOC(=O)N1CCN(C(=O)[C@H](CCC(=O)O)NC(=O)c2cc(N3C[C@@H]4[C@H](C3)[C@@H]4C(=O)OCC)nc(-c3ccccc3)n2)CC1` [Example 4, (1α,5α,6β)-3-{6-[(S)-1-(4-Butoxycarbonyl-piperazine-1-carbonyl)-3-carboxy-propylcarbamoyl]-2-phenyl-pyrimidin-4-yl}-3-aza-bicyclo[3.1.0]hexane-6-carboxylic acid ethyl ester], the 50% inhibitory concentration (IC50) amounted to 15 nM. The value for `CCCCOC(=O)N1CCN(C(=O)[C@H](CC#N)NC(=O)c2cc(N3C[C@@H]4[C@H](C3)[C@@H]4C(=O)O)nc(-c3ccccc3)n2)CC1` [Example 48, (1α,5α,6β)-3-{6-[(S)-1-(4-Butoxycarbonyl-piperazine-1-carbonyl)-2-cyano-ethylcarbamoyl]-2-phenyl-pyrimidin-4-yl}-3-aza-bicyclo[3.1.0]hexane-6-carboxylic acid] was 74 nM. As to `CCCCOC(=O)N1CCN(C(=O)[C@H](CCC(=O)O)NC(=O)c2cc(N3C[C@@H]4[C@H](C3)[C@H]4NC(=O)OC(C)(C)C)nc(-c3ccccc3)n2)CC1` [Example 5, 4-((S)-2-{[6-((1α,5α,6α)-6-tert-Butoxycarbonylamino-3-aza-bicyclo[3.1.0]hex-3-yl)-2-phenyl-pyrimidine-4-carbonyl]amino}-4-carboxy-butyryl)-piperazine-1-carboxylic acid butyl ester], the IC50 is 6.2 nM.
